In paper doi:10.1101/2021.04.08.439011v1 (biorxiv, 2021):
Where two headings read alike, the source gives them in different places.

What was measured:
ABL1(F317L) = ABL1(F317L) (Homo sapiens, UniProt P00519, F317L); conditions: 0.1 µM, binder
ABL1(H396P) = ABL1(H396P) (Homo sapiens, UniProt P00519, H396P); conditions: 0.1 µM, binder
ABL1(Q252H) = ABL1(Q252H) (Homo sapiens, UniProt P00519, Q252H); conditions: 0.1 µM, binder
BMPR1A = BMPR1A (Homo sapiens, UniProt P36894); conditions: 0.1 µM; binder
CAMK1 = CAMK1 (Homo sapiens, UniProt Q14012); conditions: 0.1 µM; binder
CDK4 = CDK4 (Homo sapiens, UniProt P11802); conditions: 0.1 µM; binder
CDK9 = CDK9 (Homo sapiens, UniProt P50750); conditions: 0.1 µM; binder
EPHA2 = EPHA2 (Homo sapiens, UniProt P29317); conditions: 0.1 µM; binder
FRK = FRK (Homo sapiens, UniProt P42685); conditions: 0.1 µM; binder
HPK1 = HPK1 (Homo sapiens, UniProt Q92918); conditions: 0.1 µM; binder
INSRR = INSRR (Homo sapiens, UniProt P14616); conditions: 0.1 µM; binder
JNK2 = JNK2 (Homo sapiens, UniProt P45984); conditions: 0.1 µM; binder
KIT(D816V) = KIT(D816V) (Homo sapiens, UniProt P10721, D816V); conditions: 0.1 µM; binder
KIT(V559D) = KIT(V559D) (Homo sapiens, UniProt P10721, V559D); conditions: 0.1 µM; binder
MAP3K12 = MAP3K12 (Homo sapiens, UniProt Q12852); conditions: 0.1 µM; binder
MEK6 = MEK6 (Homo sapiens, UniProt P52564); conditions: 0.1 µM; binder
MLK2 = MLK2 (Homo sapiens, UniProt Q02779); conditions: 0.1 µM; binder
MYO3A = MYO3A (Homo sapiens, UniProt Q8NEV4); conditions: 0.1 µM; binder
PAK2 = PAK2 (Homo sapiens, UniProt Q13177); conditions: 0.1 µM; binder
PAK7 = PAK7 (Homo sapiens, UniProt Q9P286); conditions: 0.1 µM; binder
PIK3CA(H1047Y) = PIK3CA(H1047Y) (Homo sapiens, UniProt P42336, H1047Y); conditions: 0.1 µM; binder
PIK3CA(Q546K) = PIK3CA(Q546K) (Homo sapiens, UniProt P42336, Q546K); conditions: 0.1 µM; binder
PKN1 = PKN1 (Homo sapiens, UniProt Q16512); conditions: 0.1 µM; binder
PRKCD = PRKCD (Homo sapiens, UniProt Q05655); conditions: 0.1 µM; binder
PYK2 = PYK2 (Homo sapiens, UniProt Q14289); conditions: 0.1 µM; binder
RET = RET (Homo sapiens, UniProt P07949); conditions: 0.1 µM; binder
TBK1 = TBK1 (Homo sapiens, UniProt Q9UHD2); conditions: 0.1 µM; binder
TEC = TEC (Homo sapiens, UniProt P42680); conditions: 0.1 µM; binder
TSSK3 = TSSK3 (Homo sapiens, UniProt Q96PN8); conditions: 0.1 µM; binder
ZAP70 = ZAP70 (Homo sapiens, UniProt P43403); conditions: 0.1 µM; binder

Chain of MEK6 (P52564 whole entry): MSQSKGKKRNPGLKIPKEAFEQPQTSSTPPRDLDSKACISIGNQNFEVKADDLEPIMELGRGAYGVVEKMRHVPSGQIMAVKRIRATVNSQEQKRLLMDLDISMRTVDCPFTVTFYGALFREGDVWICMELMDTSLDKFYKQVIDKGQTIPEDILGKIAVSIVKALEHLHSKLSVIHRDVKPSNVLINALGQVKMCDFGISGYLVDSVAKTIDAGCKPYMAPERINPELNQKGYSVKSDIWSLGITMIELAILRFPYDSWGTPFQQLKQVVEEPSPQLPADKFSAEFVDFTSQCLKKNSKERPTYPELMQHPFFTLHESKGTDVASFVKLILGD
Chain of TBK1 (Q9UHD2 whole entry): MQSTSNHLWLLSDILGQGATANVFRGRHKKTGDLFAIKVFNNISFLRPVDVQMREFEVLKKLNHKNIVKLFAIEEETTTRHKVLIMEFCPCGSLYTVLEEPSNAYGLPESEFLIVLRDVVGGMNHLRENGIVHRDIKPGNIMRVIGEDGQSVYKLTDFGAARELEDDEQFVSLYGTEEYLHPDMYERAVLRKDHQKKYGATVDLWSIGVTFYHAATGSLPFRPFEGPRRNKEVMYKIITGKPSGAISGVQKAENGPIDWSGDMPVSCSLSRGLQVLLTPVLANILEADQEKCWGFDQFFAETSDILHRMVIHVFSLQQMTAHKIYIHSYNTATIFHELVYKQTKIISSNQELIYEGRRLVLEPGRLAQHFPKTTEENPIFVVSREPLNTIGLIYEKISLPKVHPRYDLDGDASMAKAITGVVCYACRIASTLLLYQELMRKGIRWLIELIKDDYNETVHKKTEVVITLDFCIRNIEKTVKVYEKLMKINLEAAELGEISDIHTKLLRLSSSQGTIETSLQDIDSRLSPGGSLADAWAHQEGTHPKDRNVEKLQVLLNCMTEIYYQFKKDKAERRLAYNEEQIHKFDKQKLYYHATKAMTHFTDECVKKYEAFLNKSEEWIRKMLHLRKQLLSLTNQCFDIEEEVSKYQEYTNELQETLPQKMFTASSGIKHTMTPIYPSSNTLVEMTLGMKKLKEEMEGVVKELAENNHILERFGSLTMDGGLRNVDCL
Chain of MAP3K12 (Q12852 whole entry): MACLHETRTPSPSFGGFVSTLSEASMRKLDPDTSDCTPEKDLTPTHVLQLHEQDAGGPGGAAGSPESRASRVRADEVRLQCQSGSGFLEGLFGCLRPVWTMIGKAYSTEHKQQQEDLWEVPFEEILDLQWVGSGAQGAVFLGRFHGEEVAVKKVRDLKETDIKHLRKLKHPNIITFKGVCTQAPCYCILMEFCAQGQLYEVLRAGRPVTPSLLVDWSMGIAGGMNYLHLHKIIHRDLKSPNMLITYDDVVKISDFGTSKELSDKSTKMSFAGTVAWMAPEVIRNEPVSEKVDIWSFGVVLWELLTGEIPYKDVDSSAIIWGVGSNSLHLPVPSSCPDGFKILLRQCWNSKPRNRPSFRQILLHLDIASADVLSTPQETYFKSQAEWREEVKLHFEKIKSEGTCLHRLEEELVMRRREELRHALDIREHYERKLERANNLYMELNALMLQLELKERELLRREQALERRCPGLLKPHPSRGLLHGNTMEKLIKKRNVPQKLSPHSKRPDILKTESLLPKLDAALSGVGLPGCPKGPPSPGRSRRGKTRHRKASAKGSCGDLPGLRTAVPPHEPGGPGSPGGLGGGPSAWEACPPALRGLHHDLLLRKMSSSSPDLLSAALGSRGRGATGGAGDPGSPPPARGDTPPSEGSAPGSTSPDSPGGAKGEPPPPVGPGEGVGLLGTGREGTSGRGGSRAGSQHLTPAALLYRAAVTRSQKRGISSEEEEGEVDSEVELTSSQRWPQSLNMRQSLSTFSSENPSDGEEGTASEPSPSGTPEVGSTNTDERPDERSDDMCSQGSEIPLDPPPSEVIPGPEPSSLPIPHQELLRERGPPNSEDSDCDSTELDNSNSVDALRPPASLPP
Chain of PKN1 (Q16512 whole entry): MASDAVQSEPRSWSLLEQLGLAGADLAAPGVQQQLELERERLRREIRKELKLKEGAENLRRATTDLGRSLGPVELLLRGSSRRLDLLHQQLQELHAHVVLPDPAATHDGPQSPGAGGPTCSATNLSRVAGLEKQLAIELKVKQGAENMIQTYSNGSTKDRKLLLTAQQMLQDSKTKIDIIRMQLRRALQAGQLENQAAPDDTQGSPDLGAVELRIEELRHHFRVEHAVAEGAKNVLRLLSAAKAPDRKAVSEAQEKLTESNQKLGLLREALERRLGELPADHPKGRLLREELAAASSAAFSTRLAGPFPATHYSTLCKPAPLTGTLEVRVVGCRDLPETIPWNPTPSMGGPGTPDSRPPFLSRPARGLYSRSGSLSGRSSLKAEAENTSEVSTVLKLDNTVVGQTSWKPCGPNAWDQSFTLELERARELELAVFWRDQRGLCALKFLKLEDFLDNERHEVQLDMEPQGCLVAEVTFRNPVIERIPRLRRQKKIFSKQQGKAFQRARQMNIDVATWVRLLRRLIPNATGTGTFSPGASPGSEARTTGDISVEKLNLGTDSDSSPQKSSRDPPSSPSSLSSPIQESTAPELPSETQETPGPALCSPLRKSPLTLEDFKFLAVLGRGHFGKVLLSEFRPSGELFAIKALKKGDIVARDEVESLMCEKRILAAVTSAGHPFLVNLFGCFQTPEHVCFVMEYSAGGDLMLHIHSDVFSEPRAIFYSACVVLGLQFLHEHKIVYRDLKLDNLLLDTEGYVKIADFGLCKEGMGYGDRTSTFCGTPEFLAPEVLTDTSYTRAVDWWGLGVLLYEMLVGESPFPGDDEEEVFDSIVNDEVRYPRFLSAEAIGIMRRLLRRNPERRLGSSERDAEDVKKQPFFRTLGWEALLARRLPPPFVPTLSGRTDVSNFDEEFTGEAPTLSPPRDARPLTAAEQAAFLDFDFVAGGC
Chain of TSSK3 (Q96PN8 whole entry): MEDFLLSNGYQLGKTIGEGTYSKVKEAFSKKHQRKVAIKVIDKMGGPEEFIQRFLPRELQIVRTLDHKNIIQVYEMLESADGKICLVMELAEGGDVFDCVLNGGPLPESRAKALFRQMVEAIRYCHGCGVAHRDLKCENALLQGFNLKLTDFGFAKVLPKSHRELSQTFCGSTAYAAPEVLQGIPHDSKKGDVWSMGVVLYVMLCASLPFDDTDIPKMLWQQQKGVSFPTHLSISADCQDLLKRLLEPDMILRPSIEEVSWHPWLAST
Chain of RET (P07949 whole entry): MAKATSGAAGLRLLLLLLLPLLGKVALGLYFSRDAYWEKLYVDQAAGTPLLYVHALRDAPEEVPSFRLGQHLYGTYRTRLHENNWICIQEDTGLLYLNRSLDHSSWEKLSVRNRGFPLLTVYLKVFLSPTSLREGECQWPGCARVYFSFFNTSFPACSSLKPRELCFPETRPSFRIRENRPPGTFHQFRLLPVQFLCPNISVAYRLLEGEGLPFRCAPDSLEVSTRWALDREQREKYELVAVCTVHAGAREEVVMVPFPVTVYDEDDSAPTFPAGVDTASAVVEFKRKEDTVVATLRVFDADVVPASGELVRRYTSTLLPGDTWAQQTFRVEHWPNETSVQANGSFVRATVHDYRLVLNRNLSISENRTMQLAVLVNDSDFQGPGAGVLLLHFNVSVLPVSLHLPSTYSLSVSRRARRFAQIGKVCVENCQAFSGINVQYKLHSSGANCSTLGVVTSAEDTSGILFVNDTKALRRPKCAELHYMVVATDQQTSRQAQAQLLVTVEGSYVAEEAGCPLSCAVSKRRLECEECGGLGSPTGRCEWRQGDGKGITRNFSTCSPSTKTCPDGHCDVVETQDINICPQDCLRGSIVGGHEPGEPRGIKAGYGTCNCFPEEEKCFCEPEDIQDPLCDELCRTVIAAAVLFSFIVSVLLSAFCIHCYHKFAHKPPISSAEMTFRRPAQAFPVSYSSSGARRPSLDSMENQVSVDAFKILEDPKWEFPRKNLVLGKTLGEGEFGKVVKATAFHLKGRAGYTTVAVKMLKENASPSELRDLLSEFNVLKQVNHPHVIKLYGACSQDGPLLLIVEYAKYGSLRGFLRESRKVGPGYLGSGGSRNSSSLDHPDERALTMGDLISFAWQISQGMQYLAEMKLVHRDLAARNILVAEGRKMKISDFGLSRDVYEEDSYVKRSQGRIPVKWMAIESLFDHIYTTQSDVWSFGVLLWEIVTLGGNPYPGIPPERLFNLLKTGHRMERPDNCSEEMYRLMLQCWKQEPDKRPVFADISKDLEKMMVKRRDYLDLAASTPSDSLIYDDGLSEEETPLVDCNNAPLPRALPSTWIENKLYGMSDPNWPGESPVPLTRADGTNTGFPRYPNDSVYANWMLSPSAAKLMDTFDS
Chain of CDK9 (P50750 whole entry): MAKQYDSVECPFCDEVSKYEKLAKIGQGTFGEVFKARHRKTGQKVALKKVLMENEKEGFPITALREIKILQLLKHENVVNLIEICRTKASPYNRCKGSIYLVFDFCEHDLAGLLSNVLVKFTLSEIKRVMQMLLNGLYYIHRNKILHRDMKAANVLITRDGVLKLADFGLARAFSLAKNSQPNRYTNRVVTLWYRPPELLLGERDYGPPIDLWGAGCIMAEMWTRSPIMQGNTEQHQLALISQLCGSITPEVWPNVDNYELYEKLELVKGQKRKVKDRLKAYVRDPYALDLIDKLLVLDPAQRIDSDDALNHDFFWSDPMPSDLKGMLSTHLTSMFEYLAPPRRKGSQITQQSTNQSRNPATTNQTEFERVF
Chain of CDK4 (P11802 whole entry): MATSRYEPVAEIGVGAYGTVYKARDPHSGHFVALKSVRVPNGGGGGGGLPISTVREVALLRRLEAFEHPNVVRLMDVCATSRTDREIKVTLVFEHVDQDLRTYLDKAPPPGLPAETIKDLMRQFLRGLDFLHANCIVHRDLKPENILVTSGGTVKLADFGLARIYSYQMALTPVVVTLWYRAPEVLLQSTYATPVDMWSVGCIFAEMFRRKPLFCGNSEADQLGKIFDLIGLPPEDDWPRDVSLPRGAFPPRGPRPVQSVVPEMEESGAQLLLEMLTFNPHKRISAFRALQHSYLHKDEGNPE

Q: What does the source list for `CNc1ncc2cc(-c3ccc(-c4cccc(C)n4)cc3Cl)c(=O)n(C[C@H]3OC[C@H](N)CO3)c2n1` [compound 6, G-5555]?
A: Percent Control (ABL1(F317L); nonphosphorylated): 100%; Percent Control (ABL1(F317L); phosphorylated): 95%; Percent Control (ABL1(H396P); nonphosphorylated): 79%; Percent Control (ABL1(H396P); phosphorylated): 97%; Percent Control (ABL1(Q252H); nonphosphorylated): 86%; Percent Control (ABL1(Q252H); phosphorylated): 97%; Percent Control (BMPR1A): 90%; Percent Control (CAMK1): 100%; Percent Control (CDK4): 100%; Percent Control (CDK9): 100%; Percent Control (EPHA2): 100%; Percent Control (FRK): 100%; Percent Control (HPK1): 78%; Percent Control (INSRR): 100%; Percent Control (JNK2): 100%; Percent Control (KIT(D816V)): 100%; Percent Control (KIT(V559D)): 99%; Percent Control (MAP3K12): 100%; Percent Control (MEK6): 80%; Percent Control (MLK2): 100%; Percent Control (MYO3A): 100%; Percent Control (PAK2): 13%; Percent Control (PAK7): 100%; Percent Control (PIK3CA(H1047Y)): 73%; Percent Control (PIK3CA(Q546K)): 85%; Percent Control (PKN1): 100%; Percent Control (PRKCD): 100%; Percent Control (PYK2): 100%; Percent Control (RET): 96%; Percent Control (TBK1): 100%; Percent Control (TEC): 100%; Percent Control (TSSK3): 100%; Percent Control (ZAP70): 100%
